{
  "source": "patent US20120238566A1",
  "about": "“USE OF CELL AUTOPHAGY (TYPE II CELL APOPTOSIS) INHIBITORS” (priority 2009, published 2012)",
  "key": {"[1]": {"tested_on": "A549 cells", "format": "cell-based"}, "[2]": {"tested_on": "A549 cells", "format": "cell-based", "remark": "listed apart in the source"}, "[3]": {"tested_on": "A549 cells", "format": "cell-based", "remark": "listed apart in the source"}, "[4]": {"tested_on": "LC3", "parameters": "species or system Balb/c mice", "conditions": "mouse, in vivo"}, "[5]": {"tested_on": "Balb/c mice lung", "conditions": "mouse, in vivo"}, "[6]": {"tested_on": "Balb/c mice lung", "conditions": "mouse, in vivo", "remark": "listed apart in the source"}, "[7]": {"tested_on": "Balb/c mice lung", "conditions": "mouse, in vivo", "remark": "listed apart in the source"}, "[8]": {"tested_on": "Balb/c mice lung", "conditions": "mouse, in vivo", "remark": "listed apart in the source"}, "[9]": {"tested_on": "Balb/c mice", "conditions": "mouse, in vivo"}},
  "note": "“Also recorded” adds a separate entry of the source. Like-named read-outs stand apart in the source and are kept apart here.",
  "data": [
    {"smiles": "Cn1cnc(N)c2ncnc1-2", "note": "[3-MA, 3-methyladenine]", "values": [
      {"measurement": "percentage of A549 cells with autophagy induced by PAMAM G3, electron microscope", "setting": "[1]", "value": "can be relieved; also recorded: reduced the percentage of cells with autophagy"},
      {"measurement": "percentage of cells with EGFP-LC3 agglutination", "setting": "[2]", "value": "can be relieved"},
      {"measurement": "survival rate of A549 cells", "setting": "[3]", "value": "decreases the cell death; also recorded: can significantly reduce cell death"},
      {"measurement": "content of LC3 II in mice lung tissue (ratio to β-actin)", "setting": "[4]", "value": "relieved the occurrence of autophagy"},
      {"measurement": "lung injury, pathological sections", "setting": "[5]", "value": "has some effect on ameliorating the lung injury"},
      {"measurement": "counts of inflammatory cells in lung pathological sections", "setting": "[6]", "value": "reduced the augmentation of the counts inflammatory cells"},
      {"measurement": "lung wet/dry ratio", "setting": "[7]", "value": "decreased the augmentation of wet/dry ratio"},
      {"measurement": "lung wet/dry ratio", "setting": "[7]; ip", "value": "relieved the increased lung wet/dry ratio"},
      {"measurement": "lung elasticity", "setting": "[8]", "value": "relieves the changes of lung elasticity; also recorded: has some effect on relieving the induced injury"},
      {"measurement": "survival curve of mice", "setting": "[9]", "value": "can significantly relieve the death of mice; also recorded: has effect on delaying the death of mice"}
    ]},
    {"smiles": "C[S+]([O-])c1ccc(-c2nc(-c3ccncc3)c(-c3ccc(F)cc3)[nH]2)cc1", "note": "(stereo not shown) [SB203580]", "values": [
      {"measurement": "cell autophagy induced by inactivated H5N1 avian influenza virus, electron microscope", "setting": "[1]", "value": "reduced cell autophagy; also recorded: can effectively inhibit the occurrence of autophagy"},
      {"measurement": "lung injury, pathological sections", "setting": "[5]", "value": "has some effect on ameliorating the lung injury; also recorded: has some effect on amelioratiing the lung injury"},
      {"measurement": "counts of inflammatory cells in lung pathological sections", "setting": "[6]", "value": "reduced the counts of infiltrated inflammatory cells; also recorded: reduced the augmentation of infiltrated inflammatory cells"}
    ]}
  ]
}
